Like-named read-outs stand apart in the source and are kept apart here.

Consider 3 compounds from PMC9769880, “Diverse Sensory Repertoire of Paralogous Chemoreceptors Tlp2, Tlp3, and Tlp4 in Campylobacter jejuni” (Microbiology Spectrum, 2022).

For assay [1], the target named is Tlp3 (Campylobacter jejuni, UniProt Q0P864). The assay is described as follows: biochemical. The format is binding. A digest of the protocol: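 SPR in single-cycle kinetics mode at 25°C, PBS pH 7.2, 30 μL/min, against immobilized His-tagged recombinant periplasmic sensory domain expressed in E. coli. Ligands serially diluted 0.2 to 0.0125 mM, 10-min dissociation. KD from equilibrium fit using a report point 4 s after injection stop.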

The subject of the next assay is WT Tlp3^LBD. As to the kind of experiment: SPR competition assay (A-B-A inject). In kind it is binding, Campylobacter jejuni. Particulars: 15 seconds after injection-B; glucose 300 µM, fucose 300 μM, malic acid 200 μM. The protocol: . Competition A-B-A analyses determine the specificity of the potential ligand-binding site preferences of WT Tlp3^LBD. The bound protein is saturated with the first analyte (A), followed by the introduction of a second analyte (B); the assay is designed to show whether a cumulative response is observed after the second analyte (B) is added. A cumulative response indicates two independent binding sites, whereas the lack of a cumulative response indicates a single site where ligands compete for binding, i.e., when analyte A occupies a ligand binding site, analyte B cannot bind. […] All response data were normalized to a 100-Da molecular weight for each analyte, allowing direct comparison of the responses. Both actual RU values and theoretical values are recorded for comparison.
Figure S6. […] A) Injections are […]
at 300 μM for 60 seconds). Final responses units (RU) of injections are recorded (indicated by dashed vertical […]
81 at 15 s econds after injection- B and l fu cose […]
and fucose were compet ed was 4.4 RU ± 0.46. As this value sits be low 5 RU, it indicates direct competition for […]
Final respons es units (RU) of injections ar e re cor ded (indicated […]
As this value sits between
5.07- 13.5 RU, it indicates direct competition for the same site with glucos e replacing some of the bound malic acid during the 60 second injection- B.

The next assay concerns Tlp2. The format is cell-based, C. jejuni 11168-O. Particulars: for chemotactic response via Tlp2: nutrient-depleted chemotaxis assay. Summed up:
(§1)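 Nutrient-depleted chemotaxis and modified hard agar plug assays compared C. jejuni 11168-O tlp2, tlp3 and tlp4 mutants with wild type toward each ligand, separating attractants from repellents. Differences expressed as log10 changes. Nonmotile flaAB and nonchemotactic cheY mutants and mucin served as controls.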

The subject of assay [2] is Tlp3. The format is cell-based, C. jejuni 11168-O. The following applies: for Tlp3 CR (chemoresponse): chemotaxis of mutant compared to WT strain. Summed up: as §1
The subject of the next assay is Tlp4. In kind it is cell-based, C. jejuni 11168-O. The following applies: nutrient-depleted chemotaxis assay. A digest of the protocol: as §1
A further assay concerns Δtlp2,3 mutant. The format is cell-based. The following applies: P < 0.05.
Another assay relates to Δtlp2,4 mutant. The format is cell-based. Particulars: P < 0.05.
In another assay the test system is Δtlp3,4 mutant. The format is cell-based.
The test system of the next assay is Δtlp2,3,4 triple mutant. The format is cell-based. Particulars: P < 0.05.
In assay [3] the test system is Tlp3. On the set-up: method as in PMID 24391495. Particulars: cited from earlier work.

Chain of Tlp3 (Campylobacter jejuni, UniProt Q0P864) (Q0P864 entry or part of it): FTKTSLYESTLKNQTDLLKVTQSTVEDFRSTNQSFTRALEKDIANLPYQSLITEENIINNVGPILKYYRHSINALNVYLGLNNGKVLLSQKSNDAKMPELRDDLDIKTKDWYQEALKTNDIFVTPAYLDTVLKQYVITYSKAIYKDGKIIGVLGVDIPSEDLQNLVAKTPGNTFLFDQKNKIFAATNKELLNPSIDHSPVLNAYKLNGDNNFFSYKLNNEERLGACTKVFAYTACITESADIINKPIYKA

What is called Kd is the concentration at which binding is half-saturated. A lower Kd goes with tighter binding. The compound `C[C@H](O)[C@@H](O)[C@@H](O)[C@H](O)C=O` [Fucose] yielded a Kd on Tlp3 [1] of 25.2 ± 6.5 µM. In addition, the “SPR response of single analyte” value with WT Tlp3^LBD is 9.86 RU.
Regarding `NCCCC[C@H](N)C(=O)O` [Lysine], on Tlp3 [1], the affinity, expressed as Kd, was 4.3 ± 1.6 µM. Moreover, the “Tlp2 CR (chemoresponse)” value in the assay on Tlp2 (chemotaxis of mutant compared to WT strain) is reported as “R”. The “increase in migration (Tlp2)” value in the assay with Tlp2 (compared to the WT strain, P < 0.05) is 1.4 log. Moreover, the “chemotactic response via Tlp2” value with Tlp2 is given as “repellent”. Further, in the assay with Tlp3 [2], the “Tlp3 CR (chemoresponse)” value is “R”. In addition, in the assay with Tlp4, the “chemotactic response via Tlp4” value was “attractant”. The “cell migration toward ligand increased, Δtlp2,3 mutant” value in the assay on Δtlp2,3 mutant was 1.8 log. Moreover, in the assay with Δtlp2,4 mutant, the “cell migration toward ligand decreased, Δtlp2,4 mutant” value was found to be 1.1 log. In the assay on Δtlp3,4 mutant, the “cell migration toward ligand, Δtlp3,4 mutant” value is reported as “no change in migration”. Also, the “increase in cell migration, Δtlp2,3,4 triple mutant” value in the assay on Δtlp2,3,4 triple mutant is 1.5 log. Further, the “chemotactic response via Tlp3” value in the assay with Tlp3 [3] is listed as “repellent”.
In the case of `CC(=O)N[C@H]1[C@H]([C@H](O)[C@H](O)CO)OC(O)(C(=O)O)C[C@@H]1O` (stereo partly drawn) [Sialic acid], the Kd at Tlp3 [1] was 9 ± 0.2 µM. The “chemotactic response via Tlp2” value in the assay on Tlp2 is reported as “attractants”. Further, the “Tlp3 CR (chemoresponse)” value with Tlp3 [2] is recorded as “R”. In addition, in the assay on Tlp3 [2] (nutrient-depleted chemotaxis assay), the “chemotactic response via Tlp3” value is given as “repellents”. Further, in the assay with Tlp4, the “chemotactic response via Tlp4” value is reported as “attractants”.
